What was measured:
[1] = test system: rat administered with an ophthalmic solution of histamine; assay: Effect of suppressing histamine-induced pruritus; assay type: in vivo; conditions: 5 μl eye drops to both eyes 5 min before histamine 10 μmol/5 μl; scratching observed 20 min (FIG. 4)
Experimental: In experiments on the evaluation of the effect of suppressing histamine-induced pruritus, test formulation No. 1 (0% of sodium D-3-hydroxybutyrate, referred to as PBS in FIG. 4) and test formulation No. 4 (1.0% of sodium D-3-hydroxybutyrate, referred to as 1% HBA in FIG. 4) shown in Table 1 and Intal (2% of sodium cromoglycate) and Livostin (0.025% of levocabastine hydrochloride) as Comparative formulation were used.
5 μl of an ophthalmic solution of the test formulation or Comparative formulation was administered to the both eyes of each rat each time. Five minutes after this, 10 μmol/5 μl of an ophthalmic solution of histamine was administered to one eye each time to induce pruritus in the rat. […] Meanwhile, Intal which is a chemical mediator isolation inhibitor was not effective (FIG. 4).

[2] = test system: rat suffering from experimental allergenic conjunctivitis; assay: Evaluation test of itching suppression effect in rat model of chronically allergic conjunctivitis; assay type: in vivo; conditions: 5 μl eye drops to both eyes 5 min before local sensitizing reagent (egg albumin), scratching observed 20 min, repeated 8 days, total for 8 days vs test formulation No. 1 (FIG. 1, 2; significant level of 5%)
Experimental: 0.6 ml of a primary sensitizing reagent (a solution prepared by dissolving 20 mg of egg albumin, 40 mg of aluminum hydroxide gel and 2×10^11 units of an inactivated pertussis antigen in physiological saline) was administered to the footpads of both hands and both feet of a rat by using a 24G injection needle. Five days after the administration of the primary sensitizing reagent, 1 ml of a secondary sensitizing reagent (a solution prepared by dissolving 50 mg of egg albumin in 100 ml of physiological saline) was injected hypodermically into the back portion of the rat by using a 27G injection needle. From 14-th to 42-th days after the administration of the primary sensitizing reagent, 5 μl of drops of a local sensitizing reagent (a solution prepared by dissolving 500 mg of egg albumin in 50 ml of physiological saline) was administered to the both eyes of the rat, and the rat was put in an observation cage to observe the “scratching” of the rat for 20 minutes right after the administration of the ophthalmic solution. The rat which took this action 10 times or more within 20 minutes was used as a “rat suffering from experimental allergenic conjunctivitis” in the experiment. […]

C[C@@H](O)CC(=O)[O-].[Na+] [Sodium D-3-hydroxybutyrate]
scratching after histamine ophthalmic solution (effect of suppressing itching) [1]: excellent pruritus suppression effect | number of times of scratching (itching suppression effect) [2]: suppressed the scratching of the rat suffering from an experimental allergy, dependent upon its volume | number of times of scratching (itching suppression effect) ([2]; listed as sodium D-3-hydroxybutyrate): excellent pruritus suppression effect

— US20100056631A1, “ANTIALLERGENIC COMPOSITION” (OPHTECS CORPORATION, priority 2006, published 2010)
